Source: patent US10209240B2, “Predicting human developmental toxicity of pharmaceuticals using human stem-like cells and metabolomic ratios” (STEMINA BIOMARKER DISCOVERY, INC., priority 2012, dated 2019)
Where two headings read alike, the source gives them in different places.

What was measured:
[1] = tested on: WA09 hES cells; experiment: Phase 2 targeted biomarker assay, ornithine/cystine ratio, 9-point dose response
How it was run: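 WA09 hES cells (≤ passage 40), plated as single cells at 100,000/well on Matrigel in mTeSR1 with 10 μM Y27632, dosed 24 h later with nine 3-fold dilutions, 0.04–300 μM, 0.1% DMSO, for 72 h. Final-24 h spent medium, spiked with 13C6-arginine and filtered (<10 kDa), analysed by LC-HRMS; viability by CellTiter-Fluor.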

[2] = tested on: WA09 hES cells
[3] = tested on: hES cells; experiment: devTOX computational model predictions (Version 2.0, Version 2.1) from hES cell metabolomics; type: cell-based, human; details: single dose per treatment (Dose column)
Source text: The selection process weighted the predictive capacity of a feature, overall intensity, and peak shape to identify very well behaved features/metabolites that could be measured by targeted LC-MS or even by other detection systems.
(§1) This simplified model is based on a ratio of the reference treatment (DMSO) normalized values of ADMA and cystine.

[4] = tested on: hES cells; experiment: ADMA/cystine ratio simplified predictive model in hES cell spent media; type: cell-based, human; details: single dose per treatment; ratios less than 0.9 indicate teratogenicity
Source text: as §1
The X-axis is the reference normalized ratio of ADMA/Cystine. The y-axis is the training set of pharmaceuticals. Grey color with triangle glyphs represents teratogens and black color with circle glyphs represents non-teratogens. Each glyph point represents the media value of an independent experimental block (6 reps per block). The crosshair glyphs mark the sample medians. In FIG. 9, grey vertical line is threshold of teratogenicity, grey horizontal lines are the median absolute deviations, and black vertical line designates 1.0. The arrows at the bottom indicate the values used for differentiation of teratogens and nonteratogens, utilizing a cut off of 0.9 (grey line).

[5] = therapeutic peak plasma in vivo concentration, human, cited from earlier work
[6] = tested on: Humans; details: cited from earlier work; for Humans (known human developmental toxicity): training and test set; for Known Effect: validation and test set treatments of Example 2
[7] = tested on: Rodent; details: training and test set; cited from earlier work
[8] = tested on: Rabbit; details: training and test set; cited from earlier work
[9] = tested on: mouse embryonic stem cell; details: training and test set; weak/moderate and strong teratogens both labeled teratogen; cited from earlier work
[10] = tested on: zebrafish; details: training and test set; weak/moderate and strong teratogens both labeled teratogen; cited from earlier work
[11] = tested on: rat whole embryo; details: training and test set; weak/moderate and strong teratogens both labeled teratogen; cited from earlier work
[12] = summarized from TERIS and Briggs et al. 2011, cited from earlier work
[13] = Solubility in DMSO for stock solutions
Description: Phase I hES Cell Compound Exposure. hES cells were treated with a test compound at a single concentration equivalent to the compound's published therapeutic Cmax. […] This was done to ensure that enough cells were present at the time of sample collection to provide a signal for LC-HRMS analysis. For test compound exposure, all compound stock solutions, with the exception of valproic acid, were made with DMSO (Sigma-Aldrich). […] Each 96-well plate included media controls with and without test compound, 0.1% DMSO solvent control cells and cells exposed to a single concentration of eight different test compounds (FIG. 1A). Media controls were included on each plate to assess the impact of test compound on the sample matrix. hES cells were exposed to the test compound for 72 hours, with media and test compound replacement every 24 hours. Cells were monitored throughout the treatment period to ensure that no differentiation was occurring. After 72 hours of treatment, the spent media from the final 24-hour treatment period was collected and added to acetonitrile (Sigma-Aldrich, final acetonitrile concentration 40%), to halt metabolic processes and precipitate proteins from solution. Individual wells from each 96-well plate were collected and analyzed as separate samples. These samples were then stored at −80° C. until prepared for LC-HRMS analysis. Cell viability was assessed using the CellTiter-Fluor Cell Viability Assay as per the manufacturer's instructions (Promega, Madison, Wis.). […]
Phase 2 hES Cell Compound Exposure. […] Cell viability was assessed using the CellTiter-Fluor Cell Viability Assay. A quality control step was included with criteria that the CV of the measured viability RFU of the DMSO control cells could not exceed 10% for a plate to undergo LC-HRMS analysis. […]

[14] = training set, teratogenicity potential scored against therapeutic Cmax

Row | Compound | O/C Ratio Prediction [1] | Targeted Biomarker Assay prediction [1] | Change in the o/c ratio, also relative to cytotoxicity [1] | Teratogenicity Potential (μM) O/C Ratio ([1]; human, 72 h) [µM] | Viability Prediction [2] | Teratogenicity Potential (μM) Cell Viability ([2]; human, 72 h) [µM] | Model Predictions Version 2.0 [3] | Model Predictions Version 2.1 [3] | Model Predictions ADMA/Cystine [4] | Cmax ([5]; training set) [nM] | Humans (known human developmental toxicity) [6] | Known Effect [6] | Rodent prediction [7] | Rabbit prediction [8] | mEST prediction [9] | ZET prediction [10] | WEC prediction [11] | Preclinical in vivo and known human developmental effects ([12]; training set compounds) | further results
1 | O=c1[nH]cc(F)c(=O)[nH]1 [5-Fluorouracil] | TER | TER | change in o/c ratio that is directly correlated with a decrease in cell viability | 3 | TER | 2 | Ter | Ter | Ter | 4250 | TER | Ter | TER | TER | TER^b,i | TER^c | TER^f,k | Craniofacial, central | Cytotoxicity at the Cmax exposure level ([2]; human, 72 h): greater than 30%
2 | Nc1nc2ncc(CNc3ccc(C(=O)N[C@@H](CCC(=O)O)C(=O)O)cc3)nc2c(=O)[nH]1 [Folic Acid] | – | NON | – | – | NON | >300 | Ter | Non | Non | 35 | NON | – | – | – | – | – | – | – | Solubility in DMSO (words) [13]: completely insoluble in DMSO
3 | CN(Cc1cnc2nc(N)nc(N)c2n1)c1ccc(C(=O)N[C@@H](CCC(=O)O)C(=O)O)cc1 [Methotrexate] | TER | TER | – | 0.05 | TER | 0.05 | Ter | Ter | Ter | 200 | TER | Ter | TER | TER | TER^b,i | TER^d | TER^f | Craniofacial, limb, skeletal, | Cytotoxicity at the Cmax exposure level ([2]; human, 72 h): greater than 30%
4 | CC1(C)S[C@@H]2[C@H](NC(=O)Cc3ccccc3)C(=O)N2[C@H]1C(=O)O [Penicillin G] | – | – | – | – | – | – | Non | Non | Non | 135000 | NON | Non | NON | NON | NON^b,i | NON^c,e,n | NON^f,j | None | Targeted Biomarker Assay prediction ([1]; training and test set, o/c ratio scored against therapeutic Cmax): NON; Teratogenicity Potential (μM) O/C Ratio ([1]; training set, interpolated concentration where o/c ratio dose response curve crosses teratogenicity threshold 0.88, 72 hours): >300 µM; O/C Ratio Prediction [1, 14]: NON; Teratogenicity Potential (μM) Cell Viability ([2]; training set, interpolated concentration where cell viability dose response curve crosses teratogenicity threshold 0.88, 72 hours): >300 µM; Viability Prediction [2, 14]: NON

Second part, led by results:

Row | O/C Ratio Prediction [1] | Targeted Biomarker Assay prediction [1] | Compound | Change in the o/c ratio, also relative to cytotoxicity [1] | Teratogenicity Potential (μM) O/C Ratio ([1]; human, 72 h) [µM] | Viability Prediction [2] | Teratogenicity Potential (μM) Cell Viability ([2]; human, 72 h) [µM] | Model Predictions Version 2.0 [3] | Model Predictions Version 2.1 [3] | Model Predictions ADMA/Cystine [4] | Cmax ([5]; training set) [nM] | Humans (known human developmental toxicity) [6] | Known Effect [6] | Rodent prediction [7] | Rabbit prediction [8] | mEST prediction [9] | ZET prediction [10] | WEC prediction [11] | Preclinical in vivo and known human developmental effects ([12]; training set compounds) | further results
5 | NON | NON | NNC(=O)c1ccncc1 [Isoniazid] | – | 165.4 | NON | >300 | Ter | Ter | Non | 51000 | NON | Non | NON | NON | NON^b,i | NON^c,n | TER^f,j | None | –
6 | NON | NON | CCN(CC)CCNC(=O)c1cc(Cl)c(N)cc1OC [Metoclopramide] | – | 190.8 | NON | >300 | Ter | Non | Non | – | NON | Non | NON | NON | TER^i,m | NON^d | NON^f,j | – | Cmax ([5]; test set): 150 nM; Preclinical in vivo and known human developmental effects ([12]; test set compounds): None
7 | NON | NON | CC1=C(/C=C/C(C)=C/C=C/C(C)=C/CO)C(C)(C)CCC1 [Retinol] | o/c ratio is directly correlated with cell death | 42.2 | NON | 42.8 | Ter | Non | Non | 2400 | NON | Non | TER | TER | NON^p | TER^c,n | TER^q | Low Doses: None; High | Classification by o/c ratio in the targeted biomarker assay [1]: correctly classify; Exposure level of o/c ratio change/cell death relative to levels normally encountered by humans ([1]; human, 72 h): ~20 times; Dose shown to cause malformations ([6]; experimental animals and humans, Teratology Society 1987): > 25,000 IU/day; Dose without adverse effect on the developing fetus (FDA maximum RDA) ([6]; human pregnancy): ≤ 8,000 IU
8 | NON | NON | O=C1NS(=O)(=O)c2ccccc21 [Saccharin] | no change in the o/c ratio or viability | >300 | NON | >300 | Non | Non | Non | 1400 | NON | Non | NON | NON | NON^b,i | NON^c,e | NON^j | None | –
